In the supplement of paper PMC5908809:

Key:
IMC-1 (IL-2 20 ng/mL) [1] = assay: percent inhibition of viability; higher = more inhibition; settings: 72 h
[2] = tested on: normal primary NK cells, pool 3 (3 donors) (IL-2 2.5 ng/mL); assay: as above; settings: 72 h
YT (IL-2 2.5 ng/mL) [3] = assay: as above; settings: 72 h
[4] = tested on: normal primary NK cells, pool 1 (3 donors) (IL-2 2.5 ng/mL); assay: as above; settings: 72 h
KHYG-1 (IL-2 2.5 ng/mL) [5] = assay: as above; settings: 72 h
NK-92 (IL-2 2.5 ng/mL) [6] = assay: as above; settings: 72 h
[7] = tested on: normal primary NK cells, pool 1 (3 donors), resting (IL-2 0 ng/mL); assay: as above; settings: 72 h
KAI3 (IL-2 2.5 ng/mL) [8] = assay: as above; settings: 72 h
[9] = tested on: normal primary NK cells, pool 2 (3 donors) (IL-2 2.5 ng/mL); assay: as above; settings: 72 h
NKL (IL-2 2.5 ng/mL) [10] = assay: as above; settings: 72 h
SNK-6 (IL-2 2.5 ng/mL) [11] = assay: as above; settings: 72 h
NK-YS (IL-2 2.5 ng/mL) [12] = assay: as above; settings: 72 h
DERL-7 (IL-2 2.5 ng/mL) [13] = assay: as above; settings: 72 h
IMC-1 (IL-2 20 ng/mL) [14] = assay: drug sensitivity score (DSS) (DSS units); higher = more sensitive; extreme values may be limits of the assay; settings: 72 h
[15] = tested on: normal primary NK cells, pool 3 (3 donors) (IL-2 2.5 ng/mL); assay: as above; settings: 72 h
YT (IL-2 2.5 ng/mL) [16] = assay: as above; settings: 72 h
[17] = tested on: normal primary NK cells, pool 1 (3 donors) (IL-2 2.5 ng/mL); assay: as above; settings: 72 h
KHYG-1 (IL-2 2.5 ng/mL) [18] = assay: as above; settings: 72 h
NK-92 (IL-2 2.5 ng/mL) [19] = assay: as above; settings: 72 h
[20] = tested on: normal primary NK cells, pool 1 (3 donors), resting (IL-2 0 ng/mL); assay: as above; settings: 72 h
KAI3 (IL-2 2.5 ng/mL) [21] = assay: as above; settings: 72 h
[22] = tested on: normal primary NK cells, pool 2 (3 donors) (IL-2 2.5 ng/mL); assay: as above; settings: 72 h
NKL (IL-2 2.5 ng/mL) [23] = assay: as above; settings: 72 h
SNK-6 (IL-2 2.5 ng/mL) [24] = assay: as above; settings: 72 h
NK-YS (IL-2 2.5 ng/mL) [25] = assay: as above; settings: 72 h
DERL-7 (IL-2 2.5 ng/mL) [26] = assay: as above; settings: 72 h
[27] = tested on: normal NK cells expanded with K562-aAPC; assay: percent inhibition of viability; higher = more inhibition; settings: 72 h, IL-2 2.5 ng/mL
Experimental: (§1)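 Drug sensitivity and resistance testing on K562-aAPC-expanded normal NK cells: 5 concentrations (10-fold steps over a 10,000-fold range), 72 h at 37 °C, viability by CellTiter-Glo normalised to DMSO and benzethonium chloride controls; DSS from the fitted curve.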

[28] = tested on: normal NK cells expanded with K562-aAPC; assay: drug sensitivity score (DSS) (DSS units); higher = more sensitive; extreme values may be limits of the assay; settings: 72 h; IL-2 2.5 ng/mL
Experimental: as §1

CC(C)CC(=O)Nc1n[nH]c2c1CN(C(=O)C1CCN(C)CC1)C2(C)C (max concentration tested 10000 nM)
percent inhibition of viability [%]
Settings	1 nM	10 nM	100 nM	1000 nM	10000 nM
DERL-7 (IL-2 2.5 ng/mL) [13]	-3.18	-3.13	19.6	55.2	100
IMC-1 (IL-2 20 ng/mL) [1]	3.15	9.36	18	101	101
KAI3 (IL-2 2.5 ng/mL) [8]	0.22	5.67	10.2	34.4	97.8
KHYG-1 (IL-2 2.5 ng/mL) [5]	3.79	5.48	13.2	79.1	104
NK-92 (IL-2 2.5 ng/mL) [6]	-3.46	8.8	18	15.4	52.1
NK-YS (IL-2 2.5 ng/mL) [12]	-0.22	5.26	25.9	59.1	103
NKL (IL-2 2.5 ng/mL) [10]	9.47	12.1	8.64	26	105
SNK-6 (IL-2 2.5 ng/mL) [11]	1.24	13.9	17.6	21.7	77.7
YT (IL-2 2.5 ng/mL) [3]	4.62	5.8	7.48	37.5	104
[2]	-6.64	-10.6	9.27	6.31	54.5
[4]	5.81	-11.3	1.49	2.13	93.6
[7]	-13.4	-45.2	-20.7	-66.9	85
[9]	-7.33	3.3	10.1	14.3	85.4
[27]	1.26	-0.23	9.16	24.6	84.3

Settings	drug sensitivity score
DERL-7 (IL-2 2.5 ng/mL) [26]	13.1
IMC-1 (IL-2 20 ng/mL) [14]	21
KAI3 (IL-2 2.5 ng/mL) [21]	9.47
KHYG-1 (IL-2 2.5 ng/mL) [18]	16.4
NK-92 (IL-2 2.5 ng/mL) [19]	5.51
NK-YS (IL-2 2.5 ng/mL) [25]	14.8
NKL (IL-2 2.5 ng/mL) [23]	9.5
SNK-6 (IL-2 2.5 ng/mL) [24]	6.8
YT (IL-2 2.5 ng/mL) [16]	10.6
[15]	3.98
[17]	5.49
[20]	3.02
[22]	7.11
[28]	7.91

CCc1cc(Nc2nccc(-c3c(-c4ccc(OC)c(C(=O)Nc5c(F)cccc5F)c4)nc4ccccn34)n2)c(OC)cc1N1CCC(N2CCN(S(C)(=O)=O)CC2)CC1 (max concentration tested 10000 nM)
percent inhibition of viability [%]
Settings	1 nM	10 nM	100 nM	1000 nM	10000 nM
DERL-7 (IL-2 2.5 ng/mL) [13]	-3.29	4.96	-4.2	9.43	2.99
IMC-1 (IL-2 20 ng/mL) [1]	-4.74	-7.3	-8.28	-4.78	-4.76
KAI3 (IL-2 2.5 ng/mL) [8]	12.8	4.45	3.16	-0.26	-1.06
KHYG-1 (IL-2 2.5 ng/mL) [5]	-1.04	-3.94	-1.22	-2.02	-0.15
NK-92 (IL-2 2.5 ng/mL) [6]	-8.65	-15.5	0.66	9.19	19.7
NK-YS (IL-2 2.5 ng/mL) [12]	-1.69	-4.53	2.55	3.02	7.23
NKL (IL-2 2.5 ng/mL) [10]	-12.8	-7.57	-8.59	-4.55	-4.74
SNK-6 (IL-2 2.5 ng/mL) [11]	-2.73	-8.81	-9.86	-16	-27.5
YT (IL-2 2.5 ng/mL) [3]	2.55	-0.94	2.88	-1.24	0.54
[2]	1.45	1.94	-1.25	-1.57	-1.55
[4]	-5.95	-3.54	3.36	-0.74	-0.37
[7]	-6.68	-7.72	5.14	4.15	11.5
[9]	-9.34	1.62	-10.3	-0.25	-11.9
[27]	-0.94	-0.53	-2.18	1.87	0.97

Settings	drug sensitivity score
DERL-7 (IL-2 2.5 ng/mL) [26]	0
IMC-1 (IL-2 20 ng/mL) [14]	0
KAI3 (IL-2 2.5 ng/mL) [21]	0
KHYG-1 (IL-2 2.5 ng/mL) [18]	0
NK-92 (IL-2 2.5 ng/mL) [19]	1.41
NK-YS (IL-2 2.5 ng/mL) [25]	0
NKL (IL-2 2.5 ng/mL) [23]	0
SNK-6 (IL-2 2.5 ng/mL) [24]	0
YT (IL-2 2.5 ng/mL) [16]	0
[15]	0
[17]	0
[20]	0
[22]	0
[28]	0
